We go through one molecule from patent US10358464B2, “Specific binding sites in collagen for integrins and use thereof” (The Texas A&M University System, priority 2005, dated 2019).

Broadly, the inhibition is the relative decrease from the control value, in per cent. The term Kd denotes the concentration at which binding is half-saturated. High values mean weaker binding, low ones tighter binding. In general, koff refers to the rate constant with which the complex falls apart. Low values mean slow dissociation, high ones fast dissociation. As a reminder, the kon is the rate constant with which the complex forms.

Non-standard residues stand in square brackets, D forms with d. Residues, ends and D or L forms follow the SMILES beside them. Hyp = O=C(O)[C@@H]1C[C@@H](O)CN1

The target in data set [1] is T1, α1I binding to type III collagen (Homo sapiens, UniProt P56199).
T1 construct: recombinant I domains from integrins α1 and α2 (α1I and α2I); made in house
T1 sequence (P56199 161-360 limits assumed): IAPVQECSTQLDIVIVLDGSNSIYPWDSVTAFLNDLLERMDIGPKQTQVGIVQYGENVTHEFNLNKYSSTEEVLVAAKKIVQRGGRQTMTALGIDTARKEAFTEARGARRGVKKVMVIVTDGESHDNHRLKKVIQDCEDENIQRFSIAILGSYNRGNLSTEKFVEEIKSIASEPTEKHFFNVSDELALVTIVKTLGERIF
As to the kind of experiment: Competition ELISA, inhibition of I domain binding to type III collagen. The settings on record: 100 μM peptide, 0.5 μM α1I, type III procollagen-coated wells. In general terms: ELISA stands for enzyme-linked immunosorbent assay.

In data set [2] the target is T2, α2I binding to type III collagen (Homo sapiens, UniProt P17301).
T2 construct: recombinant I domains from integrins α1 and α2 (α1I and α2I); made in house
T2 sequence (P17301 188-365 limits assumed): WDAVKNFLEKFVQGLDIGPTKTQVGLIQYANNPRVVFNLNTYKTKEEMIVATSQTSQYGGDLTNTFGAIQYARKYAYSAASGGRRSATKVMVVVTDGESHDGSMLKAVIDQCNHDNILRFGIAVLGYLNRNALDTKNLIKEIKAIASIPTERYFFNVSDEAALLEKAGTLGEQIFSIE
Described as above. The settings on record: 100 μM peptide, 5 μM α2I, type III procollagen-coated wells.

For data set [3], the system named is MRC-5 cells. As to the kind of experiment: Cell attachment assay on coated substrates. The data set is classed as cell-based, human. The following applies: room temperature. The method, then: Reagents and Cell Culture. The human recombinant mature type III collagen used for cell attachment assays was purchased from FibroGen. All cell culture media components were purchased from Invitrogen. The human lung fibroblast cell line MRC-5 was purchased from American Type Culture Collection (ATCC) (Manassas, Va.). The cells were cultured and passaged in Dulbecco's modified Eagle's medium (DMEM) supplemented with 10% fetal bovine serum, 100 unit/ml penicillin and 100 μg/ml streptomycin. The cells were grown to subconfluence and passaged every 2-3 days.
Cell attachment assay. MRC-5 cells were starved overnight in serum deficient DMEM containing penicillin and streptomycin, then detached using 1 mM EDTA and 0.025% trypsin at 37° C. for 2 minutes. The cells were washed with PBS and resuspended in DMEM containing 0.2% BSA supplemented with 2 mM MgCl2. 100 μl of the cell suspension (˜1.5×10^5 cells/ml) were added to the microtiter wells coated with different concentrations of collagen or collagen peptides and blocked with PBS containing 0.5% (w/v) BSA. After incubation at room temperature for 45 min, the wells were washed with PBS. Attached cells were fixed with 3% p-formaldehyde for 10 min at room temperature. Following washing with cold Tris-buffered saline (TBS), pH 7.4, cells were fixed again in 20% methanol for 10 min and stained with 0.5% crystal violet for 5 min. The wells were thoroughly washed with distilled water and air-dried. Sodium citrate (0.1 M) was then added to the wells to dissolve the dye and the absorbance at 590 nm was measured. The maximum cell attachment on type III collagen was set to 100% and, residual attachment on BSA was set to 0%.
Adhesion of MRC-5 cells to peptide#1 (SEQ ID NO: 15) substrates. […] Wells in 96-well plates were coated with increasing concentrations of type III collagen, peptide #1 (SEQ ID NO: 15) or #2 (SEQ ID NO: 16) and 1.5×10^4 MRC-5 cells were added to each well. The plate was incubated for 45 min at room temperature and adhering cells were quantified as described herein.

Data set [4] is described as follows: CD temperature-dependent denaturation of triple helix. The data set is classed as physicochemical. The settings on record: CD ellipticity at 225 nm, 20° C./hr, Boltzmann sigmoidal fit. Here is the method:
Circular Dichroism (CD) Spectroscopy. Synthetic collagen peptides were analyzed by CD spectroscopy, as described previously (18) with the following modifications. Briefly, peptides were dissolved in HBS to a concentration of 50 μM. CD spectra were collected on a Jasco J720 spectropolarimeter (Tokyo, Japan) from 190 to 240 nm, with bandwidth of 1 nm and integrated for 1 s at 0.2 nm intervals. Samples were measured at room temperature using cuvettes with 0.02 cm path length. For temperature-dependent denaturation analysis, […] of peptides were added to a thermostatically controlled cuvette with a 0.5 cm path length. Thermal transition profiles were recorded at 225 nm as described above with a temperature slope of 20° C./hr. To calculate the temperature melting points, the thermal transition profiles were fitted with Boltzmann sigmoidal model using the GraphPad Prism™ software (GraphPad Software Inc., San Diego, Calif.).

Data set [5] deals with α1I (Homo sapiens, UniProt P56199). As to the kind of experiment: SPR, I domain binding to immobilized synthetic collagen peptide. On the technique in general: In SPR one partner is held on a chip, and binding of the other changes the refractive index at the surface.
α1I, sequence (P56199 161-360 limits assumed): as the sequence (P56199 161-360 limits assumed) above
Data set [6] concerns the target α2I (Homo sapiens, UniProt P17301). The data set is described as above.
The mark [7] stands for this setting: 30 nM I domain, 2 mM EDTA versus 1 mM MgCl2.

α2I, sequence (P17301 188-365 limits assumed): as the sequence (P17301 188-365 limits assumed) above

With `CC(C)C[C@H](NC(=O)CNC(=O)[C@H](CCCNC(=N)N)NC(=O)[C@H](CCC(=O)O)NC(=O)CNC(=O)[C@@H]1C[C@@H](O)CN1C(=O)[C@H](CCCNC(=N)N)NC(=O)CNC(=O)[C@@H]1C[C@@H](O)CN1C(=O)[C@H](CCCNC(=N)N)NC(=O)CNC(=O)[C@@H]1C[C@@H](O)CN1C(=O)[C@@H]1CCCN1C(=O)CNC(=O)[C@@H]1C[C@@H](O)CN1C(=O)[C@@H]1CCCN1C(=O)CNC(=O)[C@@H]1C[C@@H](O)CN1C(=O)[C@@H]1CCCN1C(=O)CN)C(=O)N1C[C@H](O)C[C@H]1C(=O)NCC(=O)N1CCC[C@H]1C(=O)N1C[C@H](O)C[C@H]1C(=O)NCC(=O)N1CCC[C@H]1C(=O)N1C[C@H](O)C[C@H]1C(=O)NCC(=O)N1CCC[C@H]1C(=O)N1C[C@H](O)C[C@H]1C(N)=O` [peptide #1, (GPO)3GROGROGERGLO(GPO)3] (H-GP[Hyp]GP[Hyp]GP[Hyp]GR[Hyp]GR[Hyp]GERGL[Hyp]GP[Hyp]GP[Hyp]GP[Hyp]-NH2; N-terminus and C-terminus assumed), the values for the inhibition at 100 µM in data set [1] and in data set [2] were 100% and 80%, respectively. In addition, the “adhesion of MRC-5 cells to coated substrate” value in data set [3] (increasing coating concentrations, 1.5×10^4 cells per well, 45 min) is on record as “could support adhesion of MRC-5 cells in a dose-dependent manner”. Further, in data set [3] (1.5 hrs (data not shown)), the “cell spreading on coated substrate” value is “Considerable cell spreading”. The “melting temperature (Tm) of triple helix” value in data set [4] was found to be 43 °C. The Kd in data set [5] was 0.023 µM; in data set [6], 0.283 µM. The koff in data set [5] turned out to be 0.0013 s⁻¹; in data set [6], 0.012 s⁻¹. For the same molecule, the kon amounted to 56000 M⁻¹ s⁻¹ in data set [5] and 44000 M⁻¹ s⁻¹ in data set [6]. The “binding in the presence of EDTA” value in data set [5] (setting [7]) and in data set [6] (setting [7]) was “completely abolished binding” each time. The “dissociate rate” value in data set [5] (15° C., 1:1 binding model) was 1.3 s^−1×10^3; in data set [6] (15° C., 1:1 binding model), 12 s^−1×10^3.
